Source: patent US8580794B2 (AbbVie Inc., priority 2009, dated 2013)

Target: GST-Bc1-2 (Homo sapiens, UniProt P10415)
Experiment: Time Resolved-Fluorescence Resonance Energy Transfer (TR-FRET) Bcl-2 binding assay with F-Bak peptide probe
Conditions: GST-Bcl-2 1 nM, F-Bak probe 100 nM, Tb-anti-GST 1 nM; '<' = below limit of detection; read-out: TR-FRET Bcl-2 Binding Ki

GST-Bc1-2, sequence (P10415 whole entry): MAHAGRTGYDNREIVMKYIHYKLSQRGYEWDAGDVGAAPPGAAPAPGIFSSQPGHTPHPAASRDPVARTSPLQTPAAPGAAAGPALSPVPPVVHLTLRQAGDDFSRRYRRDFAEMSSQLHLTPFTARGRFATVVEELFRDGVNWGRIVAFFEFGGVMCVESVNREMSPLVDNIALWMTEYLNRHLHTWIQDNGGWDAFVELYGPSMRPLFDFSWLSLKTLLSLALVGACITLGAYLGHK

Going from `CC1(C)CCC(CN2CCN(c3ccc(C(=O)NS(=O)(=O)c4ccc(NCC5COCCN5C5CCC5)c([N+](=O)[O-])c4)c(Oc4cnc5[nH]ccc5c4)c3)CC2)=C(c2ccc(Cl)cc2)C1` (stereo not shown) [Example 170, 4-(4-{[2-(4-chlorophenyl)-4,4-dimethylcyclohex-1-en-1-yl]methyl}piperazin-1-yl)-N-[(4-{[(4-cyclobutylmorpholin-3-yl)methyl]amino}-3-nitrophenyl)sulfonyl]-2-(1H-pyrrolo[2,3-b]pyridin-5-yloxy)benzamide] to `CC1(C)CCC(CN2CCN(c3ccc(C(=O)NS(=O)(=O)c4ccc(NCC5COCCN5C5CCOC5)c([N+](=O)[O-])c4)c(Oc4cnc5[nH]ccc5c4)c3)CC2)=C(c2ccc(Cl)cc2)C1` (stereo not shown) [Example 171, 4-(4-{[2-(4-chlorophenyl)-4,4-dimethylcyclohex-1-en-1-yl]methyl}piperazin-1-yl)-N-[(3-nitro-4-{[(4-tetrahydrofuran-3-ylmorpholin-3-yl)methyl]amino}phenyl)sulfonyl]-2-(1H-pyrrolo[2,3-b]pyridin-5-yloxy)benzamide], the Ki falls from 0.022 nM to under 0.01 nM.

First: CC1(C)CCC(CN2CCN(c3ccc(C(=O)NS(=O)(=O)c4ccc(NCC5CCN(C(CF)CF)CC5)c([N+](=O)[O-])c4)c(Oc4cnc5[nH]ccc5c4)c3)CC2)=C(c2ccc(Cl)cc2)C1 [Example 172, 4-(4-{[2-(4-chlorophenyl)-4,4-dimethylcyclohex-1-en-1-yl]methyl}piperazin-1-yl)-N-({4-[({1-[2-fluoro-1-(fluoromethyl)ethyl]piperidin-4-yl}methyl)amino]-3-nitrophenyl}sulfonyl)-2-(1H-pyrrolo[2,3-b]pyridin-5-yloxy)benzamide]
Second: CC1(C)CCC(CN2CCN(c3ccc(C(=O)NS(=O)(=O)c4ccc(N[C@H]5CCN(CCF)C5)c([N+](=O)[O-])c4)c(Oc4cnc5[nH]ccc5c4)c3)CC2)=C(c2ccc(Cl)cc2)C1 [Example 181, 4-(4-{[2-(4-chlorophenyl)-4,4-dimethylcyclohex-1-en-1-yl]methyl}piperazin-1-yl)-N-[(4-{[(3S)-1-(2-fluoroethyl)pyrrolidin-3-yl]amino}-3-nitrophenyl)sulfonyl]-2-(1H-pyrrolo[2,3-b]pyridin-5-yloxy)benzamide]
The Ki of the first is lower: under 0.01 nM for the first, 0.017 nM for the second.

`CC1(C)CCC(CN2CCN(c3ccc(C(=O)NS(=O)(=O)c4ccc(OCC5(F)CCN(C6CC6)CC5)c([N+](=O)[O-])c4)c(Oc4cnc5[nH]ccc5c4)c3)CC2)=C(c2ccc(Cl)cc2)C1` [Example 173, 4-(4-{[2-(4-chlorophenyl)-4,4-dimethylcyclohex-1-en-1-yl]methyl}piperazin-1-yl)-N-({4-[(1-cyclopropyl-4-fluoropiperidin-4-yl)methoxy]-3-nitrophenyl}sulfonyl)-2-(1H-pyrrolo[2,3-b]pyridin-5-yloxy)benzamide] and `CC1(C)CCC(CN2CCN(c3ccc(C(=O)NS(=O)(=O)c4ccc(OCC5(F)CCN(C6CCOCC6)CC5)c([N+](=O)[O-])c4)c(Oc4cnc5[nH]ccc5c4)c3)CC2)=C(c2ccc(Cl)cc2)C1` [Example 192, 4-(4-{[2-(4-chlorophenyl)-4,4-dimethylcyclohex-1-en-1-yl]methyl}piperazin-1-yl)-N-({4-[(4-fluoro-1-tetrahydro-2H-pyran-4-ylpiperidin-4-yl)methoxy]-3-nitrophenyl}sulfonyl)-2-(1H-pyrrolo[2,3-b]pyridin-5-yloxy)benzamide] cannot be ordered by Ki: under 0.01 nM for the first, under 0.01 nM for the second.

First: COc1ccc(CNc2ccc(S(=O)(=O)NC(=O)c3ccc(N4CCN(CC5=C(c6ccc(Cl)cc6)CC(C)(C)CC5)CC4)cc3Oc3cnc4[nH]ccc4c3)cc2[N+](=O)[O-])cc1 [Example 174, 4-(4-{[2-(4-chlorophenyl)-4,4-dimethylcyclohex-1-en-1-yl]methyl}piperazin-1-yl)-N-({4-[(4-methoxybenzyl)amino]-3-nitrophenyl}sulfonyl)-2-(1H-pyrrolo[2,3-b]pyridin-5-yloxy)benzamide]
Second: CC1(C)CCC(CN2CCN(c3ccc(C(=O)NS(=O)(=O)c4ccc(NCc5ccc(OC(F)F)cc5)c([N+](=O)[O-])c4)c(Oc4cnc5[nH]ccc5c4)c3)CC2)=C(c2ccc(Cl)cc2)C1 [Example 177, 4-(4-{[2-(4-chlorophenyl)-4,4-dimethylcyclohex-1-en-1-yl]methyl}piperazin-1-yl)-N-[(4-{[4-(difluoromethoxy)benzyl]amino}-3-nitrophenyl)sulfonyl]-2-(1H-pyrrolo[2,3-b]pyridin-5-yloxy)benzamide]
The Ki of the first is lower: under 0.01 nM for the first, 0.111 nM for the second. The first binds more tightly here.

`CC1(C)CCC(CN2CCN(c3ccc(C(=O)NS(=O)(=O)c4ccc(NCc5cccc(OC(F)(F)F)c5)c([N+](=O)[O-])c4)c(Oc4cnc5[nH]ccc5c4)c3)CC2)=C(c2ccc(Cl)cc2)C1` [Example 175, 4-(4-{[2-(4-chlorophenyl)-4,4-dimethylcyclohex-1-en-1-yl]methyl}piperazin-1-yl)-N-[(3-nitro-4-{[3-(trifluoromethoxy)benzyl]amino}phenyl)sulfonyl]-2-(1H-pyrrolo[2,3-b]pyridin-5-yloxy)benzamide] and `CC1(C)CCC(CN2CCN(c3ccc(C(=O)NS(=O)(=O)c4ccc(NCc5cccc(OC(F)F)c5)c([N+](=O)[O-])c4)c(Oc4cnc5[nH]ccc5c4)c3)CC2)=C(c2ccc(Cl)cc2)C1` [Example 187, 4-(4-{[2-(4-chlorophenyl)-4,4-dimethylcyclohex-1-en-1-yl]methyl}piperazin-1-yl)-N-[(4-{[3-(difluoromethoxy)benzyl]amino}-3-nitrophenyl)sulfonyl]-2-(1H-pyrrolo[2,3-b]pyridin-5-yloxy)benzamide] are within 1.5-fold of each other in Ki: 0.119 nM for the first, 0.08 nM for the second.

First: COc1cccc(CNc2ccc(S(=O)(=O)NC(=O)c3ccc(N4CCN(CC5=C(c6ccc(Cl)cc6)CC(C)(C)CC5)CC4)cc3Oc3cnc4[nH]ccc4c3)cc2[N+](=O)[O-])c1 [Example 176, 4-(4-{[2-(4-chlorophenyl)-4,4-dimethylcyclohex-1-en-1-yl]methyl}piperazin-1-yl)-N-({4-[(3-methoxybenzyl)amino]-3-nitrophenyl}sulfonyl)-2-(1H-pyrrolo[2,3-b]pyridin-5-yloxy)benzamide]
Second: CC1(C)CCC(CN2CCN(c3ccc(C(=O)NS(=O)(=O)c4ccc(NCc5cccc(O)c5)c([N+](=O)[O-])c4)c(Oc4cnc5[nH]ccc5c4)c3)CC2)=C(c2ccc(Cl)cc2)C1 [Example 186, 4-(4-{[2-(4-chlorophenyl)-4,4-dimethylcyclohex-1-en-1-yl]methyl}piperazin-1-yl)-N-({4-[(3-hydroxybenzyl)amino]-3-nitrophenyl}sulfonyl)-2-(1H-pyrrolo[2,3-b]pyridin-5-yloxy)benzamide]
The Ki of the first is 2-fold lower: 0.023 nM for the first, 0.047 nM for the second. The first binds more tightly here.

Compared with `CC1(C)CCC(CN2CCN(c3ccc(C(=O)NS(=O)(=O)c4ccc(NC5CCC6(CC5)OCCO6)c([N+](=O)[O-])c4)c(Oc4cnc5[nH]ccc5c4)c3)CC2)=C(c2ccc(Cl)cc2)C1` [Example 178, 4-(4-{[2-(4-chlorophenyl)-4,4-dimethylcyclohex-1-en-1-yl]methyl}piperazin-1-yl)-N-{[4-(1,4-dioxaspiro[4.5]dec-8-ylamino)-3-nitrophenyl]sulfonyl}-2-(1H-pyrrolo[2,3-b]pyridin-5-yloxy)benzamide], `CC(=O)N[C@H]1CC[C@H](Nc2ccc(S(=O)(=O)NC(=O)c3ccc(N4CCN(CC5=C(c6ccc(Cl)cc6)CC(C)(C)CC5)CC4)cc3Oc3cnc4[nH]ccc4c3)cc2[N+](=O)[O-])CC1` [Example 179, Trans-N-[(4-{[4-(acetylamino)cyclohexyl]amino}-3-nitrophenyl)sulfonyl]-4-(4-{[2-(4-chlorophenyl)-4,4-dimethylcyclohex-1-en-1-yl]methyl}piperazin-1-yl)-2-(1H-pyrrolo[2,3-b]pyridin-5-yloxy)benzamide] is lower in Ki: 0.076 nM for the first, under 0.01 nM for the second. The second binds more tightly here.

First: CC1(C)CCC(CN2CCN(c3ccc(C(=O)NS(=O)(=O)c4ccc(N[C@@H]5CCN(CC(F)F)C5)c([N+](=O)[O-])c4)c(Oc4cnc5[nH]ccc5c4)c3)CC2)=C(c2ccc(Cl)cc2)C1 [Example 180, 4-(4-{[2-(4-chlorophenyl)-4,4-dimethylcyclohex-1-en-1-yl]methyl}piperazin-1-yl)-N-[(4-{[(3R)-1-(2,2-difluoroethyl)pyrrolidin-3-yl]amino}-3-nitrophenyl)sulfonyl]-2-(1H-pyrrolo[2,3-b]pyridin-5-yloxy)benzamide]
Second: CC1(C)CCC(CN2CCN(c3ccc(C(=O)NS(=O)(=O)c4ccc(N[C@H]5CCN(CC(F)F)C5)c([N+](=O)[O-])c4)c(Oc4cnc5[nH]ccc5c4)c3)CC2)=C(c2ccc(Cl)cc2)C1 [Example 182, 4-(4-{[2-(4-chlorophenyl)-4,4-dimethylcyclohex-1-en-1-yl]methyl}piperazin-1-yl)-N-[(4-{[(3S)-1-(2,2-difluoroethyl)pyrrolidin-3-yl]amino}-3-nitrophenyl)sulfonyl]-2-(1H-pyrrolo[2,3-b]pyridin-5-yloxy)benzamide]
The Ki of the first is lower: under 0.01 nM for the first, 0.068 nM for the second. The first binds more tightly here.

Going from `CC1(C)CCC(CN2CCN(c3ccc(C(=O)NS(=O)(=O)c4ccc(NCc5ccc(O)cc5)c([N+](=O)[O-])c4)c(Oc4cnc5[nH]ccc5c4)c3)CC2)=C(c2ccc(Cl)cc2)C1` [Example 185, 4-(4-{[2-(4-chlorophenyl)-4,4-dimethylcyclohex-1-en-1-yl]methyl}piperazin-1-yl)-N-({4-[(4-hydroxybenzyl)amino]-3-nitrophenyl}sulfonyl)-2-(1H-pyrrolo[2,3-b]pyridin-5-yloxy)benzamide] to `CC1(C)CCC(CN2CCN(c3ccc(C(=O)NS(=O)(=O)c4ccc(OCC5(F)CCN(C6CCOC6)CC5)c([N+](=O)[O-])c4)c(Oc4cnc5[nH]ccc5c4)c3)CC2)=C(c2ccc(Cl)cc2)C1` (stereo not shown) [Example 193, 4-(4-{[2-(4-chlorophenyl)-4,4-dimethylcyclohex-1-en-1-yl]methyl}piperazin-1-yl)-N-({4-[(4-fluoro-1-tetrahydrofuran-3-ylpiperidin-4-yl)methoxy]-3-nitrophenyl}sulfonyl)-2-(1H-pyrrolo[2,3-b]pyridin-5-yloxy)benzamide], the Ki falls from 0.022 nM to under 0.01 nM.

With `CC1(C)CCC(CN2CCN(c3ccc(C(=O)NS(=O)(=O)c4ccc(NC5CCN(C6CC6)CC5)c(S(=O)(=O)C(F)(F)F)c4)c(Oc4cnc5[nH]ccc5c4)c3)CC2)=C(c2ccc(Cl)cc2)C1` [Example 190, 4-(4-{[2-(4-chlorophenyl)-4,4-dimethylcyclohex-1-en-1-yl]methyl}piperazin-1-yl)-N-({4-[(1-cyclopropylpiperidin-4-yl)amino]-3-[(trifluoromethyl)sulfonyl]phenyl}sulfonyl)-2-(1H-pyrrolo[2,3-b]pyridin-5-yloxy)benzamide] the Ki was 0.026 nM.
